Patent publication US20080261207A1, “Method of Measuring Cancer Susceptibility” (priority 2004, published 2008)

Test system: p21 mRNA
Assay: Radiation-induced p21 mRNA induction in heparinized whole blood incubated with dietary supplements (FIG. 5)
Type: cell-based, human
Details: heparinized whole blood of a single individual, EGC 10 μM, rLA 10 μg/mL, Cur 1 μM; for radiation-induced p21 expression: 1 hour at 37° C. with supplement, 1 Gy ionizing radiation, another 2 hours at 37° C.; for p21 levels on control blood (no radiation) / background p21 levels: incubated with supplement at 37° C., without radiation
Description: The protocol for measuring mRNA levels employed in this example was as follows. The assay procedure consists of 3 major steps: 1) leukocyte isolation and lysis on filterplates, 2) mRNA isolation, reverse primer hybridization, and cDNA synthesis in oligo(dT)-immobilized microplates, and 3) real time quantitative PCR. In brief, filterplates were placed over collection plates, and 150 μL 5 mmol/L Tris, pH 7.4, was applied to wet the filter membranes. Following centrifugation at 120×g for 1 min at 4° C. to remove solution from the filterplates, 50 μL of well-mixed blood samples were applied to each well and immediately centrifuged at 120×g for 2 min at 4° C., followed by washing of each well with 300 μL phosphate buffered saline (PBS) once with centrifugation at 2000×g for 5 min at 4° C. Then, 60 μL stock lysis buffer (see below), supplemented with 1% 2-mercaptoethanol (Bio Rad), 0.5 mg/mL proteinase K (Pierce), 0.1 mg/mL salmon sperm DNA (5 Prime Eppendorf/Brinkmann), 0.1 mg/mL E. coli tRNA (Sigma), […] each of specific reverse primers, and 10^7 molecules/mL of synthetic RNA34 as an internal standard, were applied to the filterplates, followed by incubation at 37° C. for 10 min. The filterplates were then placed over oligo(dT)-immobilized microplates (GenePlate, RNAture), and centrifuged at 2000×g for 5 min at 4° C. Following overnight storage at 4° C., the microplates were washed with 100 μL plain lysis buffer 3 times, and then with 150 μL wash buffer (0.5 mol/L NaCl, 10 mmol/L Tris, pH 7.4, 1 mmol/L EDTA) 3 times at 4° C. The cDNA was directly synthesized in each well by adding 30 μL buffer containing 1×RT-buffer (50 mmol/L KCl, 10 mmol/L Tris-HCl, pH 8.3, 5.5 mmol/L MgCl2, no dithiothreitol), 1.25 mmol/L each of dNTP, 4 units rRNasin, and 80 units of MMLV reverse transcriptase (Promega) (without primers), and incubation at 37° C. for 2 hours. The resultant 4 μL cDNA was directly transferred to 384-well PCR plates, to which 5 μL TaqMan universal master mix (Applied Biosystems) and 1 μL oligonucleotide cocktail (15 μmol/L each of forward and reverse primer, and 3-6 μmol/L TaqMan probe) were applied, and PCR was conducted in a PRISM 7900HT (Applied Biosystems), with one cycle of 95° C. for 10 min followed by 45 cycles of 95° C. for 30 sec, 55° C. for 30 sec, and 60° C. for 1 min. Each gene was amplified in separate wells. The cycle threshold (Ct), which was the cycle of PCR to generate certain amounts of PCR products (fluorescence), was determined using analytical software (SDS, Applied Biosystems). PCR was also conducted directly in the GenePlate using an iCycler (BioRad). […] First, heparinized whole blood was incubated with various dietary supplements at 37° C. for 1 hour (2 tubes for each compound). Then one tube was exposed to 1 Gy of ionizing radiation, then both tubes were incubated for another 2 hours at 37° C. The p21 mRNA was quantitated as described above. […] In FIG. 5, each data point is the mean ±standard deviation of p21 mRNA with ([…]) or without (◯) 1 Gy radiation. […] Data points surrounded by a circle indicate p<0.05.

In the case of `O=C(O[C@@H]1Cc2c(O)cc(O)cc2O[C@@H]1c1cc(O)c(O)c(O)c1)c1cc(O)c(O)c(O)c1` [epigallocatechin gallate], the “radiation-induced p21 expression” value is reported as “significantly enhanced” and the “p21 levels on control blood (no radiation) / background p21 levels” value is reported as “did not show any changes”.

For `COc1cc(/C=C/C(=O)CC(=O)/C=C/c2ccc(O)c(OC)c2)ccc1O` [curcumin], the “radiation-induced p21 expression” value was “enhanced” and the “p21 levels on control blood (no radiation) / background p21 levels” value was “increased”.

For `CCCCC/C=C\C/C=C\C/C=C\CCCCC(=O)O` [γ-linoleic acid], the “radiation-induced p21 expression” value was “enhanced” and the “p21 levels on control blood (no radiation) / background p21 levels” value was “increased”.
